Assay results taken from US5066652A, “Thiomethyl and sulfinylmethyl derivatives having gastric acid antisectetory activity and pharmaceutical compositions containing them” (Chiesi Farmaceutici S.p.A., priority 1988, dated 1991).
Structures can show the parent of a compound that is named as a salt. Where two headings read alike, the source gives them in different places.

Experiments:
[1] = Toxicity after single administration (acute toxicity, oral); conditions: mouse, in vivo, mice, p.o., lethality 7 days after treatment, Probits method, read-out: Acute Toxicity (DL50 approx. mg/kg p.o.)
Experimental: Toxicity after single administration.
The tests have been carried out in IVA:NMRI (SPF) mice fasted with water ad libitum since 18 hours before treatment.
The compounds were administered by the oral route, at constant volume (10 ml/kg) in a 0.2% aqueous solution of Tween 80.
On the basis of lethality observed 7 days after the treatment, the approximate LD50 were determined according to the Probits method.

[2] = tested on: gastric hemorrhagic lesions induced by absolute ethanol; assay: Protection against gastric lesions induced in rats by necrotizing agents (absolute ethanol); type: in vivo; conditions: po; rat, gavage 30 minutes before 1 ml absolute ethanol; lesion score ≤ 2 considered protected
Experimental: Protection against gastric lesions induced in rats by necrotizing agents
The experiments were done on male rats weighing 260-300 g starved (with free access to water) for 18 hours.
Absolute ethanol was administered by gavage in the volume of 1 ml.
Test substances or the vehicle alone for the controls were given by gavage 30 minutes before the necrotizing agent in a 5% suspension of methylcellulose volume 2.5 ml kg^-1. One hour after administration of the necrotizing agent, the animals were killed and examined for lesions of the glandular portion of the gastric mucosa. The lesions presenting as blackish lesions grouped in patches of varying size, usually parallel to the major axis of the stomach, were scored according to the following arbitrary scale:
1=hyperemic mucosa, or up to 3 small patches;
2=from 4 to 10 small patches;
3=more than 10 small or up to 3 medium-sized patches;
4=from 4 to 6 medium-sized patches;
5=more than 6 medium-sized or up to 3 large patches;
6=from 4 to 6 large patches;
7=from 7 to 10 large patches;
8=more than 10 large patches or extensive necrotic zones.
"Small"0 was defined as up to 2 mm across (max diameter), "medium-sized" as between 2 and 4 mm across and "large" as more than 4 mm across.
Animals with gastric lesion score ≤ 2 were considered protected.
ED50 values were calculated according to Wilcoxon method.
The results are expressed in table 5.

[3] = tested on: secretion of hydrochloric acid in the stomach (Shay ulcers); assay: Antisecretory activity - Shay ulcers (pylorus-ligated rat); type: in vivo; conditions: for Emax: Rattus norvegicus, α=1 represents 100% inhibition of gastric acid hypersecretion, read-out: α (approximate value of intrinsic activity); for Emax / ED50: 2 h; for ED50: rat, pylorus ligation, intraduodenal or intravenous; for PR (potency ratio in comparison with Omeprazole): ratio of mean ED50 on the 3 parameters of test compound to mean ED50 of omeprazole
Experimental: Antisecretory activity--Shay ulcers The gastric secretory inhibitory activity of the compounds of general formula (I) was determined in case of hypersecretion induced in the rat by ligation of gastroduodenal junction according to the procedure described by Shay (Shay H. et al, Gasgroenterology 5, 43-61, 1945). […] Thereafter, they were fasted for 24 hours, with water ad libitum, which period was sufficient to assure a good gastric emptying, then laparectomized under light ether anesthesia, so as to allow to effect a pylorus ligation as closer as possible to the gastroduodenal junction. Two hours after the ligation, the animals were killed by means of an ether excess and stomaches were removed. Gastric contents were recovered, after filtration through a gauze, and placed in graduated test-tubes and centrifuged at 3000×g for 15 minutes. The following parameters were evaluated on the surnatant: volume (ml); pH; free acidity by conversion of pH into H^+ μEq by means of Moore table (Ann. New York Acad. Sci. 1967, 866-874); titrable acidity, by titration of an amount with 0.02N NaOH, using phenolphtalein as the indicator. […] The results were expressed as percent inhibition of hypersecretion induced by pylorus ligation in the control rats. The obtained results are reported in table 3 as: ED50 (μmol/kg) calculated on the basis of the equation of the linear tract of does-effect curves obtained with the test compounds on volume, free and titrable acidities; […]

[4] = tested on: secretion of hydrochloric acid in the stomach; assay: Lumen-perfused rat stomach in situ (histamine-induced hypersecretion); type: in vivo; conditions: for ED50: histamine 35 mcg/kg/min, 3 hours; for ED50 / α (intrinsic activity): intraduodenal; for α (intrinsic activity): histamine; for PR = potency ratio: in comparison with omeprazole
Experimental: Lumen-perfused rat stomach in situ The experiments were done according to Ghosh M. N. and Schild H. O. (Br. J. Pharmacol. 13, 54-61, 1958). […] After a midline abdominal incision, a PVC tube was inserted into the stomach via the esophagus and the stomach was perfused with saline (37° C.) at a rate of 1 ml/min. A second tube draining the pylorus was inserted through the abdominal wall for collection of gastric secretion. […] After equilibration of basal secretion an hypersecretion was induced by infusion of histamine 35 mcg/kg/min, through the femoral vein. […] Mean gastric output was determined for a 3 hours test period following drug administration. The last 30 minutes interval prior to dosing was used as a control. The dose-response relationship was established using the maximum inhibition obtained at each individual dose.

stomach of animals = conditions: animals treated over a long period; cited from earlier work
[5] = free acid output, read-out: ED50 free acid output
[6] = secretion volume, read-out: ED50 volume
[7] = titratable acid output, read-out: ED50 titratable acid output
[8] = read-out: ED50 free acid output
[9] = read-out: ED50 titratable acid output

Compound | LD50 at 168 h [1] | ED50 [2] | Emax [3] | ED50 [3, 5] | ED50 [3, 6] | ED50 [3, 7] | PR (potency ratio in comparison with Omeprazole) [3] | ED50 [4, 8] | ED50 [4, 9] | α (intrinsic activity) [4] | PR = potency ratio [4] | carcinomas at the bottom of the stomach (stomach of animals)
c1ccc(-n2ccnc2SCc2nc3ccccc3[nH]2)cc1 [XXII, 1-phenyl-2-[2'-(benzimidazolyl)methylthio]imidazole.2HCl] | ~1000 mg/kg | 63 mg/kg | 80% | 16.8 µmol/kg | 30.5 µmol/kg | 22.3 µmol/kg | 8,4 | – | – | – | – | –
CN(C)c1ccccc1CSc1nccn1-c1ccccc1 [XXVIII, 1-phenyl-2-[2'-(N,N-dimethylanilyl)methylthio]imidazole. 2HCl] | – | – | 100% | 40.6 µmol/kg | 55.4 µmol/kg | 44.9 µmol/kg | 17,0 | 31.4 µmol/kg | 19.9 µmol/kg | 1 | 11.3 | –
COc1ccnc(CSc2nccn2-c2cccc(F)c2)c1C [XX, 1-(3'-fluorophenyl)-2-[2'-(3'-methyl-4'-methoxypyridyl)methylthio]imidazole] | – | 50 mg/kg | 70 to 80% | 65 µmol/kg | 80 µmol/kg | 65 µmol/kg | 25,3 | – | – | – | – | –
COc1ccc(-n2ccnc2SCc2ccccc2N(C)C)cc1 [XXIX, 1-(4'-methoxyphenyl)-2-[2 '-(N,N-dimethylanilyl)methylthio]imidazole.2HCl] | > 2000 mg/kg | – | 100% | 86.1 µmol/kg | 144 µmol/kg | 107 µmol/kg | 40,7 | – | – | – | – | –
CN(C)c1ccccc1CSc1nccn1-c1cccc(F)c1 [XIX, 1-(3'-fluorophenyl)-2-[2'-(N,N-dimethylanilyl)methylthio]imidazole.2HCl] | ~1000 mg/kg | 70 mg/kg | 100% | 47.3 µmol/kg | 108 µmol/kg | 64.3 µmol/kg | 26,4 | 32.2 µmol/kg | 26.7 µmol/kg | 1 | 13.0 | –
Fc1ccc(-n2ccnc2SCc2nc3ccccc3[nH]2)cc1 [XXIV] | ~2000 mg/kg | 47 mg/kg | 70 to 80% | 12.5 µmol/kg | 20.5 µmol/kg | 15.7 µmol/kg | 5,9 | – | – | – | – | –
[O-][S+](Cc1ccc2ccccc2n1)c1nc2cccnc2[nH]1 (centres unmarked) [LI, 2-(2'-quinolylmethylsulfinyl)imidazo-[4,5-b]-pyridine] | ~750 mg/kg | 20 mg/kg | 100% | 4.8 µmol/kg | 10.3 µmol/kg | 5.6 µmol/kg | 2,5 | – | – | – | – | –
COc1ccc2[nH]c([S+]([O-])Cc3ncc(C)c(OC)c3C)nc2c1 (centres unmarked) [Omeprazole, reference compound] | – | 73 mg/kg | 100% | 1.8 µmol/kg | 4.2 µmol/kg | 2.3 µmol/kg | – | 2.23 µmol/kg | 2.3 µmol/kg | 1 | – | high incidence of carcinomas
CN(C)c1ccccc1CSc1nccn1C [XI, 1-methyl-2-[2'-(N,N-dimethylanilyl)methylthio]imidazole. 2HCl] | ~450 mg/kg | 20 mg/kg | 100% | 31.9 µmol/kg | 40 µmol/kg | 29.6 µmol/kg | 12,2 | 60.6 µmol/kg | 40.9 µmol/kg | 1 | 22.4 | –
Fc1cccc(-n2ccnc2SCc2nc3ccccc3[nH]2)c1 [XXI, 1-(3'-fluorophenyl)-2-[2'-(benzimidazolyl)methylthio]imidazole.2HCl] | ~900 mg/kg | 70 mg/kg | 100% | 27 µmol/kg | 38 µmol/kg | 29 µmol/kg | 11,3 | – | – | – | – | –
CN/C(=N/CCSCc1nc[nH]c1C)NC#N [Cimetidine, reference compound] | – | – | 100% | 24.1 µmol/kg | 47.3 µmol/kg | 23.9 µmol/kg | 11,5 | 11.8 µmol/kg | 11.1 µmol/kg | 1 | 5.1 | –
Cn1ccnc1SCc1nc2cc(C(=O)c3ccccc3)ccc2[nH]1 [X, 1-methyl-2-[2'-(5'-benzoyl)-benzimidazolylmethylthio]imidazole. 2H3 PO4] | ~1400 mg/kg | – | 70 to 80% | 2.7 µmol/kg | 10 µmol/kg | 2.7 µmol/kg | 1,9 | – | – | – | – | –
COc1ccc2[nH]c([S+]([O-])Cc3ncc(C)c(OC)c3C)nc2c1 (centres unmarked) [Omeprazole HCL, reference compound] | ~1400 mg/kg | – | – | – | – | – | – | – | – | – | – | –
COc1ccc(C)nc1CSc1ncnc2[nH]cnc12 [XLIII] | – | 60 mg/kg | 100% | 83 µmol/kg | 89 µmol/kg | 81.6 µmol/kg | 30,6 | – | – | – | – | –
CN(C)c1ccccc1C[S+]([O-])c1nccn1-c1ccccc1F (centres unmarked) [XLI, 1-(2'-fluorophenyl)-2-[2'-(N,N-dimethylanilyl)methylsulfinyl]imidazole] | – | – | 100% | 42.3 µmol/kg | 124 µmol/kg | 61.9 µmol/kg | 27,6 | – | – | – | – | –
